The subject of data set [1] is aptamer (SEQ ID NO:7) functionalized microspheres loaded with conjugate (5). The experiment in a line: Triggered release of insulin conjugate (5) from aptamer coated microspheres, fluorescence monitoring. The method, then:
(for a biotin binding site:aptamer ratio of 5:1) Streptavidin functionalized magnetic microspheres (Bangs Laboratories), 2 mL, were washed with HEPES 10 mM/NaCl 150 mM/pH 7.4 buffer 3×2 mL, using a magnet to separate out the microspheres from the washings. The microspheres were suspended in 1 mL of the same buffer. The aptamer 5′-/5BioTEG//iSp18//iSp18/ATCTCGGTCTCGGGACGACAGGATTTTCCTCAATGAAGTGGGTCGTCCCGAGACC-3′ (SEQ ID NO:7) (IDT, Coralville, Iowa, USA), 2 nmoles, was dissolved in 10 mL of the buffer and added slowly drop-wise to the microsphere suspension under continuous shaking. The mixture was incubated for one hour and then washed 3×, once with a 1 mL volume then twice with 200 μL volumes after transfer to a 1.5 mL microcentrifuge tube. The washed microspheres were resuspended in 1 mL of buffer and stored at 4° C. until use. For a biotin binding site:aptamer ratio of 1:1, i.e. saturated, 800 μL of microspheres were prepared as above, with the exception that they were resuspended in 400 uL of buffer with 8 nmoles of aptamer then added.
Aptamer functionalized microspheres (200 uL containing 0.4 nmoles of aptamer were washed 1×200 μL of binding buffer and then resuspended in 100 μl of the same buffer. The insulin-PEO12-oligonucleotide conjugate in 0.5 nmoles, in 37 μL of water, was added to the suspension and incubated, with constant mixing by inversion, overnight at room temperature, protected from light.
All release experiments were carried out in water containing NaCl (140 mM), KCl (5 mM), and MgCl2 (1.2 mM), buffered to pH 7.4 with Tris (20 mM). Streptavidin coated microspheres were mixed with biotinylated aptamer to obtain aptamer coated microspheres, see above for detailed preparation. […] On addition of six micromolar quinine at three and one half hours an additional pulse with analogous characteristics of the first pulse was observed. A third analogous pulse can be triggered using eighteen micromolar quinine. […]

Data set [2] deals with matrix-displayed aptamer (SEQ ID NO:11) on Biacore SA chip. The experiment in a line: Biacore SPR: loading and release from aptamer-coated SA chip. The class given is binding. As for the experimental part: For SPR experiments, Biacore X system and commercially available Biacore SA sensor chips from Biacore AB (Uppsala, Sweden) were used.
A 1 μM solution of aptamer aptamer 5′-/5BioTEG//iSp18//iSp18/ATCTCGGTCTCGGGACGACAGGATTTTCCTCAATGAAGTGGGTCGTCCCGAGA (SEQ ID NO:11) in 10 mM HEPES at pH 7.4, 150 mM NaCl, and 3 mM EDTA (in HBS-EP) was applied to one of the SA sensor chip's two channels for 20 min at 4 μL min^−1, followed by a 120 sec wash with 4 M urea/15 mM EDTA to remove any nonspecifically adsorbed material. The aptamer used for these SPR experiments was shorter by two bases relative to the aptamer used in the microsphere experiments (see SEQ ID NO:7). According to the Biacore SA chip literature, the matrix was a highly irregular 3D dextran hydrogel recognition matrix with a height of approximately 100-200 nm and an uneven distribution of streptavidin. The matrix was coated with biotinylated aptamer containing two 18-atom hexaethylene glycol spacers between the biotin and the oligonucleotide. On the basis of changes in SPR response, the aptamer was coated at saturation densities of 0.12-to-0.15 pmol mm^−2, an estimated average inter-aptamer distance of 10-to-11 nm (based on a 100 nm height for the dextran layer. 1.2-to-1.6 molecules of insulin-conjugate bound per aptamer on initial loading, with oligonucleotide binding (i.e. no insulin attached) at 1.2 per aptamer. Where possible, the channel with no aptamer or insulin-conjugate/oligonucleotide deposited acted as a blank for correction of system influence. When the additional channel was not able to be used as a blank, data for the first 10 minutes of any buffer change was omitted due to artifacts occurring in this time period caused by washes with the new buffer.
Matrix-Aptamer Hybridization with (5). (5) 1 μM in NaCl (140 mM), KCl (5 mM), and MgCl2 (1.2 mM), buffered to pH 7.4 with Tris (20 mM), was dispensed on the aptamer displaying channel at 1 μL min^−1 until saturation (80 min), with the other channel used as a system influence control when possible. Monitoring of conjugate (5) release was taken 15 minutes after the end of the conjugate (5) application time to allow for weak non-specifically bound conjugate to be washed from the surface. Conjugate dissociation in real time was measured through the decrease in mass, again using the formula 1000 R.U.=[…]. In some experiments, instrumental instabilities were observed as occasional spikes in sensorgrams during long-time monitoring.
Release of the insulin-conjugate (i→ii in FIG. 1A) was studied in two different systems: 1) release from a dextran matrix (SA-Chip, Biacore), under continuous flow, with surface plasmon resonance (SPR) monitoring, and 2) release from the surface of non-porous beads followed by fluorescence monitoring. […]
On the technique in general: In SPR one partner is held on a chip, and binding of the other changes the refractive index at the surface.

Another data set addresses cocaine aptamer MNS-1. The experiment in a line: Fluorescence screening of FDA approved drugs against fluorescein-labeled aptamer MNS-1 with DABCYL quencher oligonucleotide 1-Q. Format: binding. The conditions noted are these: 20 mM Tris-HCl pH 7.4, 50 nM MNS-1, 150 nM 1-Q, 30 min incubation. As for the experimental part:
Oligonucleotides MNS-1 and 1-Q were custom-made and HPLC purified by Integrated DNA Technologies, Inc (Coralville, Iowa, USA) and were used as received. The base sequence for MNS-1 is: 5′-fluorescein-ATCTCGGGACGACAGGATTTTCCTCAATGAAGTGGGTCGTCCC (SEQ ID NO:4), and 1-Q is: 5′-GTC GTC CCG AGA T-dabcyl (SEQ ID NO:5). All compounds (except cocaine) were purchased from Sigma-Aldrich Co. (St. Louis, Mo., USA). All measurements were performed in 20 mM Tris-HCl pH 7.4, 140 mM NaCl, 5 mM KCl, 2 mM MgCl2. Mixture of MNS-1 and 1-Q was incubated for 5 min at room temperature, then a series of standard dilutions of all compounds were added to the mixture solutions of MNS-1 and 1-Q to final concentrations of 50 nM and 150 nM respectively. Measurements were performed after an incubation time of 30 min. The measurements were performed on a Perkin-Elmer Victor II microplate reader (Wallac, Finland) with a 485-nm excitation filter and a 535-nm emission filter. […]

Another data set deals with Spiegelmer (L-MNS). The experiment in a line: Spiegelmer (L-MNS) binding of quinine. To be noted: same conditions as MNS-1/1-Q. The text has this: ) binding of quinine. […] from ChemGenes (Wilmington, Mass.). Note that the sequence and label are same as mns-1, 1-Q, measurement conditions and concentrations were also the same (see FIG. 4, and Materials and Methods section in Example section 6). […] Oligonucleotides MNS-1 and 1-Q were custom-made and HPLC purified by Integrated DNA Technologies, Inc (Coralville, Iowa, USA) and were used as received. The base sequence for MNS-1 is: 5'-fluorescein-[NT] ID NO:4), and 1-Q is: 5'-[NT]-dabcyl (SEQ ID NO:5). […] (St. Louis, Mo., USA). All measurements were performed in 20 mM Tris-HCl pH 7.4, 140 mM NaCl, 5 mM KCl, 2 mM MgCl2. […] Measurements were performed after an incubation time of 30 min. The measurements were performed on a Perkin-Elmer Victor II microplate reader (Wallac, Finland) with a 485-nm excitation filter and a 535-nm emission filter.

Data set [3] has as its system rat hepatoma cell insulin signaling pathways (McA-RH7777). The experiment in a line: Tissue culture and insulin signaling assay. The class given is cell-based. The conditions noted are these: 100 nM for 10 min, McA-RH7777 cells, in triplicate. The method, then: McA-RH7777, rat hepatoma cells were grown in DMEM media with 20% fetal bovine serum. Cells were incubated in serum-free medium for 5 hours and treated with insulin and insulin-oligonucleotide conjugate at the concentration of 100 nM for 10 min. Cell lysates were prepared in SDS lysis buffer (2% SDS, 62.5 mM Tris HCL (pH 6.8), 10% glycerol, 50 mM DTT, 0.01% Bromophenol Blue). All antibodies were purchased from Cell Signaling Technology (Danvers, Mass.).

`C[C@]12CCC(=O)C=C1CC[C@@H]1[C@@H]2[C@@H](O)C[C@@]2(C)[C@H]1CC[C@]2(O)C(=O)COC(=O)CCC(=O)O` [hydrocortisone-21-hemisuccinate (HHS), hydrocortisone-21-hemisuccinate]: the “triggering of insulin conjugate release from microspheres” value in data set [1] (250 μM, soaking for a total of 60 minutes) is “sluggishly”; in data set [1] (higher concentrations than 250 μM) it was “significant release of the conjugate”.
Usually Kd stands for the equilibrium constant for the complex coming apart. As for `C=C[C@H]1C[N@@]2CC[C@H]1C[C@H]2[C@H](O)c1ccnc2ccc(OC)cc12` [quinine], in data set [1] (two micromolar quinine, pH 7.4), the “triggered release of (5) from microspheres” value was “a pulse of (5) was released”. For the same compound, in data set [2] (0, 2 and 8 μM quinine, or 1.5, 6 and 18 μM after pre-washing the chip, SPR), the “insulin-conjugate boluses by escalating quinine concentrations” value is on record as “desired profile with three postprandial boluses”. For the same compound, the Kd at cocaine aptamer MNS-1 was about 600 nM. Also, the “binding to the spiegelmer of the aptamer” value in the data set on Spiegelmer (L-MNS) is recorded as “bound to the spiegelmer of the aptamer”.
On to “Fluorescein-5′-GTC GTC CCG AGA CCG AGA T-3′-L1-Insulin [insulin conjugate]”, for which, in data set [2] (SA chip (Biacore), fitted from 15 to 25 minutes), the “line of best fit slope of initial rate data for dissociation” value was −0.1399 fmol mm^−2 min^−1. For the same compound, the “observed initial dissociation rate” value in data set [2] (SA chip (Biacore), no quinine) was 0.14 fmol mm^−2 min^−1. The “activity of insulin conjugate on insulin signaling” value in data set [3] was “full activity”.
Regarding “5′-TCTCGGGACGACCCACTTCATTG-3′ (TCTCGGGACGACCCACTTCATTG; listed as DNA, chemistry not given here) [oligonucleotide inhibitor]”, the “blocking of insulin-conjugate release in the presence of quinine” value in data set [2] (1 μM inhibitor, SPR) is “block the release of the insulin-conjugate”.
